Measurements published in patent EP1785423A1, “Pyridopyrazine derivatives and their use as kinase modulators” (Zentaris GmbH, priority 2005, dated 2007).
pEC50, pIC50: −log10 of the molar value.

How the values were obtained:
[1] = target: T1, PI3Kalpha (Homo sapiens, UniProt P42336); assay: Cell-free kinase assay PI3K-ALPHA (ALPHA technology); type: biochemical; conditions: 100µM ATP
T1 construct: teils als Volllängenkinasen, teils als verkürzte Fragmente - mindestens aber bestehend aus der funktionellen Kinasedomäne; purchased Upstate 14-602
T1 sequence (P42336 whole entry, the tested form may be a part): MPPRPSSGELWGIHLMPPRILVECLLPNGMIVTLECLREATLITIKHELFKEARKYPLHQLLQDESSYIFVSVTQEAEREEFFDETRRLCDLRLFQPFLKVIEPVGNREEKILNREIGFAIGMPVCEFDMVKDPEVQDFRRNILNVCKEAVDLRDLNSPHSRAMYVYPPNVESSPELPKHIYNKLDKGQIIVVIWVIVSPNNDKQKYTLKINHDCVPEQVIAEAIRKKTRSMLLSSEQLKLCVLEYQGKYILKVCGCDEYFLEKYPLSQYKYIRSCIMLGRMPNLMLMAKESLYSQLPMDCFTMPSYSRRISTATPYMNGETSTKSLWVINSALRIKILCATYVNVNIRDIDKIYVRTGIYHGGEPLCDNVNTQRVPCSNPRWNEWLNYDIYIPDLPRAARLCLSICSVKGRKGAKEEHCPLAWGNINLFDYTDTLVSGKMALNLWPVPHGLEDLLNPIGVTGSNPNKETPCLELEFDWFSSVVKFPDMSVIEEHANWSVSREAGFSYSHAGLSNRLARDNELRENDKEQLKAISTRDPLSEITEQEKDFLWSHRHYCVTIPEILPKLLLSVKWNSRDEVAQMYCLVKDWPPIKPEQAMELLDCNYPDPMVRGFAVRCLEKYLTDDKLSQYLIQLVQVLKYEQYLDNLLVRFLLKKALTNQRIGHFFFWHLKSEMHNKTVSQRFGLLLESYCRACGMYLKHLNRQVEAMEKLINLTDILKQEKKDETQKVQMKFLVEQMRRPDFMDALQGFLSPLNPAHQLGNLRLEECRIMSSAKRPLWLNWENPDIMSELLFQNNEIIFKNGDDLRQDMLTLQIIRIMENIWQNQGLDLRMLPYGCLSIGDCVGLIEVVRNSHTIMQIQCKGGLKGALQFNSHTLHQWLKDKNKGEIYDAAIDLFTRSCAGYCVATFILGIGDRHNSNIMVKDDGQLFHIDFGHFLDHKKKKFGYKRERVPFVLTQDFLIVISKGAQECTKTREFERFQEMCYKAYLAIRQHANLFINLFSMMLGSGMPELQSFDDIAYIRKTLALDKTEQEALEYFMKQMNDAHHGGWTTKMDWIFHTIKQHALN
T1 sequence (P27986 whole entry partner, the tested form may be a part): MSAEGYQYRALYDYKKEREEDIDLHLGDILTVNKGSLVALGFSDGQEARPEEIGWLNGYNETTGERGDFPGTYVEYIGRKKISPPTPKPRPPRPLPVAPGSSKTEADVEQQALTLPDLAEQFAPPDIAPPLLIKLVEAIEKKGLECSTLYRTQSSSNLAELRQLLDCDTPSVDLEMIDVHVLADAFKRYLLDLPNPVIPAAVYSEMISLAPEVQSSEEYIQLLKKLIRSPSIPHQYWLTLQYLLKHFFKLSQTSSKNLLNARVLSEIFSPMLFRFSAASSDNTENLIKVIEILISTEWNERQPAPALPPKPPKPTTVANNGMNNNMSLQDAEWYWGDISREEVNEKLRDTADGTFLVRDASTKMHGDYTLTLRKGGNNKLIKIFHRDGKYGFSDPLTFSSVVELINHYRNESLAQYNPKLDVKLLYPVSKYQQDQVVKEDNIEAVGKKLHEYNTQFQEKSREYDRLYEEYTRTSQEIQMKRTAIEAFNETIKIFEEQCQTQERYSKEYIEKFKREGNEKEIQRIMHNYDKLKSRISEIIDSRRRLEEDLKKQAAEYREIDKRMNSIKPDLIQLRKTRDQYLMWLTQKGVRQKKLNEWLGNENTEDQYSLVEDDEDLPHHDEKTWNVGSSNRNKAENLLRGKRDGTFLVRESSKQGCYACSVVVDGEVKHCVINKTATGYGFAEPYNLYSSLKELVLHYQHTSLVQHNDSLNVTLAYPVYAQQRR
Excerpt: (§1) Die inhibitorische Wirkung der erfindungsgemäßen Verbindungen wurde an diversen humanen Serin/ Threonin-, Tyrosin- und Lipidkinasen in enzymatischen Assays getestet. Dabei wurden rekombinante humane Kinasen wie z.B. Erk2, Pl3Kalpha, - beta, -gamma, -delta, p38alpha, p38gamma, Jnk1, Jnk2 und andere eingesetzt, teils als Volllängenkinasen, teils als verkürzte Fragmente - mindestens aber bestehend aus der funktionellen Kinasedomäne. Die käuflichen Kinaseproteine (Proqinase, Upstate) wurden als rekombinante Fusionsproteine mit GST-(Glutathion-S-Transferase) oder His-Tag eingesetzt. Je nach Substrattyp wurden die verschiedenen Kinasereaktionen mittels geeigneter ALPHA™-beads (PerkinElmer) quantifiziert.
(§2) Nachfolgend wird die Substanztestung am Erk-Assay genauer beschrieben. Ausgewählte Testergebnisse der Erk2-, PI3Kalpha-Assays sind unten aufgeführt. […] Anschließend wurde die Kinasereaktion durch Zugabe von 10µl des mit anti-phospho MBP-Antikörpers (320pM, #05-429/ Upstate) präinkubierten ALPHA-Beadmixes (10µg/ml, #6760617/ PerkinElmer) in 25mM Tris, 200mM NaCl, 100mM EDTA und 0.3% BSA abgestoppt und über Nacht stehen gelassen. • b) PI3K-ALPHAs (z.B. PI3Kalpha): Die Testsubstanz, 1ng PI3Kalpha (#14-602, Upstate), 100µM ATP und 20µM PIP2-Substrat (#P4508, Echelon) auf einer 384er Optiplate (PerkinElmer) für 1h in 50mM Hepes, 50mM NaCl, 5mM MgCl2, 0.05% Chaps, 5mM DTT bei pH 7.4 inkubiert. Anschließend wurde die Kinasereaktion durch Zugabe des mit 1nM GST:Grp1-Fusionsprotein (Upstate) und 15nM biotinyliertem PIP3 (#C-39B6/ Echelon) präinkubierten ALPHA-Beadmixes (10µg/ml, #6760603/ PerkinElmer) in 50mM Hepes, 50mM NaCl, 50mM EDTA und 0.1% BSA abgestoppt und über Nacht stehen gelassen.
(§3) Die Fluoreszenzdetektion erfolgte am nächsten Morgen in einem Fusion™alpha-Gerät (PerkinElmer).
(§4) Die Berechnung der %-Inhibitionswerte je Substanz-Konzentration geschah mittels folgender Formel aus den im Fusion™alpha ermittelten Rohdaten: % Kinase Inhibition(Probe) = 100-(100×(MittelwertProbe -Mittelwert0% Kontrolle)/(Mittelwert100% Kontrolle -Mittelwert0% Kontrolle)) [formula]
(§5) Die Kontrollen wurden jeweils 8fach, die Substanzproben jeweils 2fach bestimmt. Die 0%-Kontrolle enthielt entweder kein ATP oder kein Substrat, die 100%-Kontrolle enthielt keine Testsubstanz. Die IC50-Werte wurden mit GraphPadPrism ermittelt.

[2] = target: T2, Erk2; assay: Cell-free kinase assay Erk2-ALPHA (ALPHA technology); type: biochemical, human; conditions: 10µM ATP
T2 construct: teils als Volllängenkinasen, teils als verkürzte Fragmente - mindestens aber bestehend aus der funktionellen Kinasedomäne; purchased Upstate 14-173
T2 sequence (P63085 2-358 limits assumed): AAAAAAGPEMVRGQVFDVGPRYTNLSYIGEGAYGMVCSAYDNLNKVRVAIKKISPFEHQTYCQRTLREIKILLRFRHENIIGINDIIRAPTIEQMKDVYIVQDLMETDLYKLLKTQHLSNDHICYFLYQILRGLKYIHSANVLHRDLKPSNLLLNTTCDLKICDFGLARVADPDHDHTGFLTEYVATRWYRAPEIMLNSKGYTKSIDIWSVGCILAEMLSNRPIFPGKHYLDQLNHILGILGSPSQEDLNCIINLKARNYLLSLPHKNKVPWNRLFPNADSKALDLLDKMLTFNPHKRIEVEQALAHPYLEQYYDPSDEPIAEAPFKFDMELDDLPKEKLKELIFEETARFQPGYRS
Excerpt: as §1, §2, §3, §4, §5

[3] = system: Hct116; assay: Cellular anti-proliferative XTT assay; type: cell-based; conditions: Homo sapiens, HCT-116, 45h incubation
Excerpt: (§6) Das Prinzip dieses Testes beruht auf der intrazellulären Reduktion des Tetrazolium-Farbstoffes XTT (Natrium 3'-[1-(phenylaminocarbonyl)-3,4-tetrazolium]-bis(4-methoxy-6-nitro)benzensulfonsäure, Sigma) zu einem Formazan-Farbstoff durch mitochondriale Dehydrogenasen. Der Farbstoff wird nur von stoffwechselaktiven Zellen gebildet, seine photometrisch messbare Intensität ist ein quantitativer Indikator für das Vorhandensein lebender Zellen. Die Reduzierung der Farbstoffbildung durch Inkubation der Zellen mit Substanzen dient als Parameter für die anti-proliferative Wirkung.
(§7) Die Tumorzelllinien (ATCC) wurden in 96er Mikrotiterplatten in definierter Zellzahl (5000 Zellen/ Well für BxPC3 und Hct116; 10000 Zellen/ Well für MDA MB468) eingesäat und anschließend über Nacht im Brutschrank bei 37°C, 5% CO2 und 95% Luftfeuchtigkeit inkubiert. Die Testsubstanzen wurden als Stammlösungen (10 mM) in DMSO angesetzt. […] Die Zellplatten wurden dann für 45h im Brutschrank bei 37°C, 5% CO2 und 95% Luftfeuchtigkeit inkubiert.
(§8) Für die Detektionssreaktion wurde das Substrat XTT mit PMS (N-Methyl Dibenzopyrazine Methylsulfat, Sigma) versetzt und zu den Zellen gegeben, sodass eine finale Konzentration von 325µg XTT/ml und 2.5µg PMS/ml resultierte. Es wurde dann für 3h bei 37°C, 95% Luftfeuchte inkubiert. Anschließend konnte das durch zelluläre Dehydrogenasen gebildete Formazan Salz bei einer Adsorption bei 490nm quantifiziert werden.
(§9) Die Auswertung der %-Inhibitions-Werte geschah mittels folgender Formel aus den Werten für die jeweils gemessenen optischen Dichten bei 490nm: % Inhibition Zellproliferation(Probe) = 100-(100×(MittelwertProbe -Mittelwert0% Kontrolle)/(Mittelwert100% Kontrolle -Mittelwert0% Kontrolle)) [formula]
(§10) Die Kontrollen wurden jeweils 8fach, die Substanzproben jeweils 2fach bestimmt. Die 0%-Kontrolle enthielt keine Zellen, die 100%-Kontrolle enthielt keine Testsubstanz. Die EC50-Werte wurden mit GraphPadPrism ermittelt.

[4] = system: MDA-MB468; assay: Cellular anti-proliferative XTT assay; type: cell-based; conditions: Homo sapiens, MDA-MB-468, 45h incubation
Excerpt: as §6, §7, §8, §9, §10

[5] = system: BxPC3; assay: Cellular anti-proliferative XTT assay; type: cell-based; conditions: Homo sapiens, BXPC-3, 45h incubation
Excerpt: as §6, §7, §8, §9, §10

CCNC(=O)Nc1ccc2ncc(C=CCOC)nc2n1 [Beispiel 6, 1-Ethyl-3-[3-((E)-3-methoxy-propenyl)-pyrido[2,3-b]pyrazin-6-yl]-harnstoff]
pIC50 [1]: 4.67

CCNC(=O)Nc1ccc2ncc(-c3ccc(OC(=O)Oc4ccccc4)cc3)nc2n1 [Beispiel 11, Kohlensäure-4-[6-(3-ethyl-harnstoff)-pyrido[2,3-b]pyrazin-3-yl]-phenyl-phenyl-ester]
pIC50 [2]: 6.57 | pIC50 [1]: < 4.50

CONC(=O)Nc1ccc2ncc(-c3ccccc3)nc2n1 [Beispiel 7, 1-Methoxy-3-(3-phenyl-pyrido[2,3-b]pyrazin-6-yl)-harnstoff]
pIC50 [2]: 6.39 | pIC50 [1]: 4.55

CCNC(=O)Nc1ccc2ncc(-c3ccc(OC(=O)OCCOC)cc3)nc2n1 [Beispiel 10, Kohlensäure-4-[6-(3-ethyl-harnstoff)-pyrido[2,3-b]pyrazin-3-yl]-phenyl-(2-methoxy-ethyl)-ester]
pEC50 [3]: 5.30 | pEC50 [4]: 5.15 | pEC50 [5]: 5.05 | pIC50 [2]: 7.06 | pIC50 [1]: 5.59

C=CCONC(=O)Nc1ccc2ncc(-c3ccccc3)nc2n1 [Beispiel 8, 1-Allyloxy-3-(3-phenyl-pyrido[2,3-b]pyrazin-6-yl)-harnstoff]
pIC50 [2]: 5.39 | pIC50 [1]: 4.57

CCNC(=O)Nc1ccc2ncc(-c3ccc(OC(=O)OC)cc3)nc2n1 [Beispiel 9, Kohlensäure-4-[6-(3-ethyl-harnstoff)-pyrido[2,3-b]pyrazin-3-yl]-phenyl-methyl-ester]
pEC50 [3]: 5.00 | pEC50 [4]: 4.82 | pEC50 [5]: 4.70 | pIC50 [2]: 6.93 | pIC50 [1]: 5.11

CCNC(=O)Nc1ccc2ncc(-c3ccc(OC(=O)C=Cc4ccccc4)cc3)nc2n1 [Beispiel 13, (E)-3-Phenyl-acrylsäure-4-[6-(3-ethyl-harnstoff)-pyrido[2,3-b]pyrazin-3-yl]-phenyl-ester]
pIC50 [1]: < 4.50

CCNC(=O)Nc1ccc2ncc(C#CC3CC3)nc2n1 [Beispiel 3, 1-(3-Cyclopropylethynyl-pyrido[2,3-b]pyrazin-6-yl)-3-ethyl-harnstoff]
pIC50 [2]: 5.24 | pIC50 [1]: 4.77

CCNC(=O)Nc1ccc2ncc(-c3ccc(OC(=O)N(CC)CC)cc3)nc2n1 [Beispiel 12, Diethyl-carbaminsäure-4-[6-(3-ethyl-harnstoff)-pyrido[2,3-b]pyrazin-3-yl]-phenyl-ester]
pIC50 [2]: 5.55 | pIC50 [1]: 5.47
